Measurements taken from patent publication US11987588B2, “Modulators of the beta-3 adrenergic receptor useful for the treatment or prevention of heart failure and disorders related thereto” (Arena Pharmaceuticals, Inc., priority 2017, dated 2024).

Biological target: Beta-3 Adrenergic Receptor (Homo sapiens (Human), UniProt P13945)
Experiment: Homogeneous Time-Resolved Fluorescence (HTRF) cAMP antagonist assay, IC50 determination
Format: cell-based
Settings: CHO-K1 cells stably expressing recombinant receptor, isoproterenol at EC90
How it was run: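 Antagonist mode: isoproterenol at its predetermined EC90 added after compound to recombinant CHO-K1 cells in IBMX-containing PBS, 1 h, room temperature. Compounds tested as 5-fold, 10-point dilutions, top final typically 10 or 100 μM. HTRF signal converted to cAMP via standard curve, giving IC50.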

Sequence of Beta-3 Adrenergic Receptor (P13945 whole entry, species assumed): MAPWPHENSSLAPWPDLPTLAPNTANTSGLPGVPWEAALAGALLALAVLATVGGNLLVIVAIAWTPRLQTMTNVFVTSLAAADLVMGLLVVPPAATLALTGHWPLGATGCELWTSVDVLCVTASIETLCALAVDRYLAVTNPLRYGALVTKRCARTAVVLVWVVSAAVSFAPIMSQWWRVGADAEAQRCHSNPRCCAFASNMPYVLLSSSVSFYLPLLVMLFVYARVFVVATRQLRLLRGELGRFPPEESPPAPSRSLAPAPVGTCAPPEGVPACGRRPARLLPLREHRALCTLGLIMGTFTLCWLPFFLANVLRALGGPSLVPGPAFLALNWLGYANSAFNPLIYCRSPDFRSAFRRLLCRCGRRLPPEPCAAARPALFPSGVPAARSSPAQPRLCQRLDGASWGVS

`CNS(=O)(=O)c1cccc(OC[C@@H](O)CN[C@@H]2COC3(CCN(S(=O)(=O)c4cnc5ccccc5c4)CC3)C2)c1` [Compound 335, 3-((S)-2-hydroxy-3-((S)-8-(quinolin-3-ylsulfonyl)-1-oxa-8-azaspiro[4.5]decan-3-ylamino)propoxy)-N-methylbenzenesulfonamide] and `CNS(=O)(=O)c1cccc(OC[C@@H](O)CN[C@H]2COC3(CCN(S(=O)(=O)c4cnc5ccccc5c4)CC3)C2)c1` [Compound 336, 3-((S)-2-hydroxy-3-((R)-8-(quinolin-3-ylsulfonyl)-1-oxa-8-azaspiro[4.5]decan-3-ylamino)propoxy)-N-methylbenzenesulfonamide] are within 1.5-fold of each other in IC50: 12.1 nM for the first, 15.3 nM for the second.

Going from `CNS(=O)(=O)c1cccc(OC[C@@H](O)CNC2COC3(CCN(S(=O)(=O)c4cncc(Br)c4)CC3)C2)c1` (stereo partly drawn) [Compound 337, 3-((2S)-3-(8-(5-bromopyridin-3-ylsulfonyl)-1-oxa-8-azaspiro[4.5]decan-3-ylamino)-2-hydroxypropoxy)-N-methylbenzenesulfonamide] to `CNS(=O)(=O)c1cccc(OC[C@@H](O)CNC2COC3(CCN(S(=O)(=O)c4cncc(-c5cnn(C)c5)c4)CC3)C2)c1` (stereo partly drawn) [Compound 342, 3-((2S)-2-hydroxy-3-(8-(5-(1-methyl-1H-pyrazol-4-yl)pyridin-3-ylsulfonyl)-1-oxa-8-azaspiro[4.5]decan-3-ylamino)propoxy)-N-methylbenzenesulfonamide], the IC50 rises from 18.6 nM to 42.6 nM (2.3-fold). The first is the more potent here.

First: CNS(=O)(=O)c1cccc(OC[C@@H](O)CNC2COC3(CCN(S(=O)(=O)c4cccc(-c5ccc(CNCC#N)cc5)c4)CC3)C2)c1 (stereo partly drawn) [Compound 338, 3-((2S)-3-(8-(4′-((cyanomethylamino)methyl)biphenyl-3-ylsulfonyl)-1-oxa-8-azaspiro[4.5]decan-3-ylamino)-2-hydroxypropoxy)-N-methylbenzenesulfonamide]
Second: CNS(=O)(=O)c1cccc(OC[C@@H](O)CNC2COC3(CCN(S(=O)(=O)c4cccc(-c5ccc(CNCCOC)cc5)c4)CC3)C2)c1 (stereo partly drawn) [Compound 340, 3-((2S)-2-hydroxy-3-(8-(4′-((2-methoxyethylamino)methyl)biphenyl-3-ylsulfonyl)-1-oxa-8-azaspiro[4.5]decan-3-ylamino)propoxy)-N-methylbenzenesulfonamide]
The IC50 of the first is 1.5-fold higher: 47.1 nM for the first, 30.9 nM for the second. The second is the more potent here.

`CNS(=O)(=O)c1cccc(OC[C@@H](O)CNC2COC3(CCN(S(=O)(=O)c4cccc(-c5ccc(CNCC(F)F)cc5)c4)CC3)C2)c1` (stereo partly drawn) [Compound 339, 3-((2S)-3-(8-(4′-((2,2-difluoroethylamino)methyl)biphenyl-3-ylsulfonyl)-1-oxa-8-azaspiro[4.5]decan-3-ylamino)-2-hydroxypropoxy)-N-methylbenzenesulfonamide] and `CNS(=O)(=O)c1cccc(OC[C@@H](O)CNC2COC3(CCN(S(=O)(=O)c4cccc(-c5ccc(CNCCF)cc5)c4)CC3)C2)c1` (stereo partly drawn) [Compound 347, 3-((2S)-3-(8-(4′-((2-fluoroethylamino)methyl)biphenyl-3-ylsulfonyl)-1-oxa-8-azaspiro[4.5]decan-3-ylamino)-2-hydroxypropoxy)-N-methylbenzenesulfonamide] are within 1.5-fold of each other in IC50: 42.4 nM for the first, 33.5 nM for the second.

First: CNS(=O)(=O)c1cccc(OC[C@@H](O)CNC2COC3(CCN(S(=O)(=O)c4cncc(-c5ccc(CN)cc5)c4)CC3)C2)c1 (stereo partly drawn) [Compound 341, 3-((2S)-3-(8-(5-(4-(aminomethyl)phenyl)pyridin-3-ylsulfonyl)-1-oxa-8-azaspiro[4.5]decan-3-ylamino)-2-hydroxypropoxy)-N-methylbenzenesulfonamide]
Second: CNS(=O)(=O)c1cccc(OC[C@@H](O)CNC2COC3(CCN(S(=O)(=O)c4cc(-c5ccc(CN)cc5)ccc4OC)CC3)C2)c1 (stereo partly drawn) [Compound 357, 3-((2S)-3-(8-(4′-(aminomethyl)-4-methoxybiphenyl-3-ylsulfonyl)-1-oxa-8-azaspiro[4.5]decan-3-ylamino)-2-hydroxypropoxy)-N-methylbenzenesulfonamide]
The IC50 of the first is 1.8-fold higher: 28.5 nM for the first, 15.7 nM for the second. The second is the more potent here.

Compared with `CNS(=O)(=O)c1cccc(OC[C@@H](O)CN[C@@H]2COC3(CCN(S(=O)(=O)c4ccc5ncccc5c4)CC3)C2)c1` [Compound 343, 3-((S)-2-hydroxy-3-((S)-8-(quinolin-6-ylsulfonyl)-1-oxa-8-azaspiro[4.5]decan-3-ylamino)propoxy)-N-methylbenzenesulfonamide], `CNS(=O)(=O)c1cccc(OC[C@@H](O)CN[C@H]2COC3(CCN(S(=O)(=O)c4ccc5ncccc5c4)CC3)C2)c1` [Compound 344, 3-((S)-2-hydroxy-3-((R)-8-(quinolin-6-ylsulfonyl)-1-oxa-8-azaspiro[4.5]decan-3-ylamino)propoxy)-N-methylbenzenesulfonamide] is 1.5-fold higher in IC50: 27.7 nM for the first, 42.7 nM for the second. The first is the more potent here.

Compared with `CNS(=O)(=O)c1cccc(OC[C@@H](O)CNC2COC3(CCN(S(=O)(=O)c4cccc(-c5ccc(CN[C@@H](CO)C(N)=O)cc5)c4)CC3)C2)c1` (stereo partly drawn) [Compound 345, (2S)-3-hydroxy-2-((3′-(3-((S)-2-hydroxy-3-(3-(N-methylsulfamoyl)phenoxy)propylamino)-1-oxa-8-azaspiro[4.5]decan-8-ylsulfonyl)biphenyl-4-yl)methylamino)propanamide], `CNS(=O)(=O)c1cccc(OC[C@@H](O)CNC2COC3(CCN(S(=O)(=O)c4cccc(-c5ccc(CNC(=O)C(N)=O)cc5)c4)CC3)C2)c1` (stereo partly drawn) [Compound 354, N^1-((3′-(3-((S)-2-hydroxy-3-(3-(N-methylsulfamoyl)phenoxy)propylamino)-1-oxa-8-azaspiro[4.5]decan-8-ylsulfonyl)biphenyl-4-yl)methyl)oxalamide] is 3-fold lower in IC50: 107 nM for the first, 35.2 nM for the second.

Compared with `CNS(=O)(=O)c1cccc(OC[C@@H](O)CNC2COC3(CCN(S(=O)(=O)c4cccc(-c5ccc(CN6CCSC6)cc5)c4)CC3)C2)c1` (stereo partly drawn) [Compound 346, 3-((2S)-2-hydroxy-3-(8-(4′-(thiazolidin-3-ylmethyl)biphenyl-3-ylsulfonyl)-1-oxa-8-azaspiro[4.5]decan-3-ylamino)propoxy)-N-methylbenzenesulfonamide], `CNS(=O)(=O)c1cccc(OC[C@@H](O)CN[C@@H]2COC3(CCN(S(=O)(=O)c4cccc(-c5ccc(CNC(C)C)cc5)c4)CC3)C2)c1` [Compound 359, 3-((S)-2-hydroxy-3-((S)-8-(4′-((isopropylamino)methyl)biphenyl-3-ylsulfonyl)-1-oxa-8-azaspiro[4.5]decan-3-ylamino)propoxy)-N-methylbenzenesulfonamide] is 7-fold lower in IC50: 126 nM for the first, 17.9 nM for the second.

Going from `CNS(=O)(=O)c1cccc(OC[C@@H](O)CNC2COC3(CCN(S(=O)(=O)c4cccc(-c5ccc(CNCCNC(C)=O)cc5)c4)CC3)C2)c1` (stereo partly drawn) [Compound 348, N-(2-((3′-(3-((S)-2-hydroxy-3-(3-(N-methylsulfamoyl)phenoxy)propylamino)-1-oxa-8-azaspiro[4.5]decan-8-ylsulfonyl)biphenyl-4-yl)methylamino)ethyl)acetamide] to `CNS(=O)(=O)c1cccc(OC[C@@H](O)CNC2COC3(CCN(S(=O)(=O)c4cccc(-c5ccc(CNC(=O)CN)cc5)c4)CC3)C2)c1` (stereo partly drawn) [Compound 353, 2-amino-N-((3′-(3-((S)-2-hydroxy-3-(3-(N-methylsulfamoyl)phenoxy)propylamino)-1-oxa-8-azaspiro[4.5]decan-8-ylsulfonyl)biphenyl-4-yl)methyl)acetamide], the IC50 rises from 36.7 nM to 58 nM (1.6-fold). The first is the more potent here.

Compared with `CNS(=O)(=O)c1cccc(OC[C@@H](O)CNC2COC3(CCN(S(=O)(=O)c4ccc5c(c4)N(CC(C)C)CCO5)CC3)C2)c1` (stereo partly drawn) [Compound 349, 3-((2S)-2-hydroxy-3-(8-(4-isobutyl-3,4-dihydro-2H-benzo[b][1,4]oxazin-6-ylsulfonyl)-1-oxa-8-azaspiro[4.5]decan-3-ylamino)propoxy)-N-methylbenzenesulfonamide], `CCN1CCOc2ccc(S(=O)(=O)N3CCC4(CC3)C[C@H](NC[C@H](O)COc3cccc(S(=O)(=O)NC)c3)CO4)cc21` [Compound 350, 3-((S)-3-((S)-8-(4-ethyl-3,4-dihydro-2H-benzo[b][1,4]oxazin-6-ylsulfonyl)-1-oxa-8-azaspiro[4.5]decan-3-ylamino)-2-hydroxypropoxy)-N-methylbenzenesulfonamide] is 3.1-fold lower in IC50: 67.9 nM for the first, 21.8 nM for the second. The second is the more potent here.

Compared with `CCN1CCOc2ccc(S(=O)(=O)N3CCC4(CC3)C[C@@H](NC[C@H](O)COc3cccc(S(=O)(=O)NC)c3)CO4)cc21` [Compound 351, 3-((S)-3-((R)-8-(4-ethyl-3,4-dihydro-2H-benzo[b][1,4]oxazin-6-ylsulfonyl)-1-oxa-8-azaspiro[4.5]decan-3-ylamino)-2-hydroxypropoxy)-N-methylbenzenesulfonamide], `CNS(=O)(=O)c1cccc(OC[C@@H](O)CNC2COC3(CCN(S(=O)(=O)c4ccc5c(c4)NCCO5)CC3)C2)c1` (stereo partly drawn) [Compound 355, 3-((2S)-3-(8-(3,4-dihydro-2H-benzo[b][1,4]oxazin-6-ylsulfonyl)-1-oxa-8-azaspiro[4.5]decan-3-ylamino)-2-hydroxypropoxy)-N-methylbenzenesulfonamide] is 2.2-fold lower in IC50: 38.6 nM for the first, 17.2 nM for the second.

Going from `CNS(=O)(=O)c1cccc(OC[C@@H](O)CNC2COC3(CCN(S(=O)(=O)c4cccc(-c5ccc(CNC(=O)CC(=O)O)cc5)c4)CC3)C2)c1` (stereo partly drawn) [Compound 352, 3-((3′-(3-((S)-2-hydroxy-3-(3-(N-methylsulfamoyl)phenoxy)propylamino)-1-oxa-8-azaspiro[4.5]decan-8-ylsulfonyl)biphenyl-4-yl)methylamino)-3-oxopropanoic acid] to `CNS(=O)(=O)c1cccc(OC[C@@H](O)CNC2COC3(CCN(S(=O)(=O)c4cc(-c5ccc(CN)cc5)cc5c4OCC5)CC3)C2)c1` (stereo partly drawn) [Compound 358, 3-((2S)-3-(8-(5-(4-(aminomethyl)phenyl)-2,3-dihydrobenzofuran-7-ylsulfonyl)-1-oxa-8-azaspiro[4.5]decan-3-ylamino)-2-hydroxypropoxy)-N-methylbenzenesulfonamide], the IC50 falls from 167 nM to 16.1 nM (10-fold). The second is the more potent here.

For `O=S(=O)(NCCF)c1cccc(OC[C@@H](O)CNC2COC3(CCN(S(=O)(=O)c4ccc5ccccc5c4)CC3)C2)c1` (stereo partly drawn) [Compound 356, N-(2-fluoroethyl)-3-((2S)-2-hydroxy-3-(8-(naphthalen-2-ylsulfonyl)-1-oxa-8-azaspiro[4.5]decan-3-ylamino)propoxy)benzenesulfonamide], the IC50 was 16.9 nM.
